Experimental data reported in BindingDB's records for doi:10.7270/Q2DV1HJQ (The Scripps Research Institute Molecular Screening Center, 2014).

Target: Disintegrin and metalloproteinase domain-containing protein 17 (Homo sapiens, UniProt P78536)
Assay: inhibition of ADAM17 substrate cleavage – biochemical, quenched FRET substrate, counter-screen for ADAM10 exosite inhibitor project, dose response (AID 743253)

Chain of Disintegrin and metalloproteinase domain-containing protein 17 (P78536 whole entry, the tested form may be a part): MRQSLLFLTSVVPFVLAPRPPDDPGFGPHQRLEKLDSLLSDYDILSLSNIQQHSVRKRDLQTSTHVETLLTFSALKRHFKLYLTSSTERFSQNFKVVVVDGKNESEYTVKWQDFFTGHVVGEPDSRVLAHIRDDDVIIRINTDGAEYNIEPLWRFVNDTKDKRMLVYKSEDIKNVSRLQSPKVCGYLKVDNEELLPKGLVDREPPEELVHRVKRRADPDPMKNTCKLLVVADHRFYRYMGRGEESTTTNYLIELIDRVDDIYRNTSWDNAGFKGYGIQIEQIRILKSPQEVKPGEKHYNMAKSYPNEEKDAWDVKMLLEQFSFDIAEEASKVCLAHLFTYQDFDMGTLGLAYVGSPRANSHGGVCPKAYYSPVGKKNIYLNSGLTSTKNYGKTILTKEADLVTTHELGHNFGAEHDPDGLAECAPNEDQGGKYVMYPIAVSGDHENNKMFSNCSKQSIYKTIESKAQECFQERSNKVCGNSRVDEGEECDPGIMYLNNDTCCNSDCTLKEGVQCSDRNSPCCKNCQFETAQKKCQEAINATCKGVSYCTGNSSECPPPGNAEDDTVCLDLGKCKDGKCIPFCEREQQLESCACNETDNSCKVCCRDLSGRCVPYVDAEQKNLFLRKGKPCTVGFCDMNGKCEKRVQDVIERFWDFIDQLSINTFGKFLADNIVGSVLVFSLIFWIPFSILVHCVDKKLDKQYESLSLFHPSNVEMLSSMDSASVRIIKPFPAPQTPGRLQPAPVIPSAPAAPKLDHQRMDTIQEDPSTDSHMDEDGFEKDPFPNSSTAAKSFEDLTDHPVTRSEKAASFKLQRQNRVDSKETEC

SMILES | IC50
O=C1C=CC([N+](=O)[O-])=CC1CN=Nc1ccccn1 (stereo not drawn) [MLS000585015] | 9.75 µM
COc1ccc(N2C(=O)NC(=O)C(=Cc3c[nH]c4ccc(Br)cc34)C2=O)c(OC)c1 [(5E)-5-[(5-bromo-1H-indol-3-yl)methylene]-1-(2,4-dimethoxyphenyl)pyrimidine-2,4,6(1H,3H,5H)-trione] | 12 µM
N#CCSc1nc2cc(C(=O)N3CCC(C(N)=O)CC3)ccc2c2nc3ccccc3n12 [1-({6-[(cyanomethyl)thio]benzimidazo[1,2-c]quinazolin-3-yl}carbonyl)piperidine-4-carboxamide] | 69.6 µM
